From EP2924037A1, “QUINAZOLINE DERIVATE AND USE THEREOF AS APOPTOSIS INHIBITOR” (Linx Pharmaceutical Co., Ltd., priority 2012, dated 2013)
Where two headings read alike, the source gives them in different places.

Key:
E. Coli O111:B4 = assay: Oxford Cup test of antibiotic activity; type: cell-based; settings: after 24 hrs; terazosin 0.2µg, 2µg, 200µg, 2mg; ampicillin 2mg
Experimental: The antibiotic activity of terazosin was measured by Oxford Cup test. Oxford Cups containing different concentrations of terazosin were placed in the petri dish wherein E. Coli O111:B4 was cultured on LB medium. The effects of terazosin and ampicillin on the growth of E. Coli were examined after 24 hrs.

[1] = system: sepsis models (LPS; Cecal Ligation and Puncture); assay: Effects against sepsis (LPS and CLP models), 7-day survival; type: in vivo, BALB/C mice; settings: i.p. once a day for 3 days at 0.4 mg/kg; 7-day period; P < 0.05 compared to negative controls
Experimental: After 1.5 hours, compounds were injected (i.p.) at a predetermined concentration. Mouse survival was examined every 12 hours for 7 days. Statistical significance of the difference in the survival rates was analyzed.
Another model is Cecal Ligation and Puncture (CLP) model of sepsis. Mice were anesthetized. A 1.5-2.0 cm long abdominal midline incision was made and the cecum was exposed. After ligation 5 mm from the cecal tip, the cecum was punctured once with a 22-gauge needle, and some stool was squeezed out. Then the cecum was put back into the abdomen and the abdomen was closed by running suture. After 1.5 hours, compounds were injected (i.p.) at a predetermined concentration. Mouse survival was examined every 12 hours for 7 days. Statistical significance of the difference in the survival rates was analyzed.
These compounds were individually injected (i.p.) once a day for 3 days at 0.4 mg/kg.

pgk1 = target: T1, pgk1 (Mus musculus, UniProt P09411); assay: Activity assay of pgk1 (GAPDH-coupled, absorbance at 340 nm); type: biochemical
T1 construct: His; made in house; host or cells: E. coli
T1 sequence (P09411 1-417): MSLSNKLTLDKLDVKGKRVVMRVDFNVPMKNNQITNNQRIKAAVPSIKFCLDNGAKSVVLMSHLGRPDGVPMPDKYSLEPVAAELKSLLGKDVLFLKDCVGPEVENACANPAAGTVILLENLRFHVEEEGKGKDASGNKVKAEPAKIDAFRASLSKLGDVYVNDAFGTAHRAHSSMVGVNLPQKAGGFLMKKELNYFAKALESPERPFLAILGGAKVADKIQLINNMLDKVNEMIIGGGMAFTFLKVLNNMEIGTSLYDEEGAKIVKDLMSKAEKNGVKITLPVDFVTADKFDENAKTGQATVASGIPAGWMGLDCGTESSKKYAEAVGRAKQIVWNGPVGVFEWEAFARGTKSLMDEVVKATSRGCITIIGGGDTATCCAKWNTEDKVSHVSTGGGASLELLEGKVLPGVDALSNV
Experimental: The recombinant mouse pgk1 protein (His-pgk1) was expressed in the E. Coli. The protein was purified by a Nickel column. The proteins were diluted to 0.15 unit /mL. Then, different concentrations of terazosin were added to determine the pgk1 activity.
According to the components of Colorimetric GAPDH Assay Kit (ScienCells), the reaction solution was prepared with solutions of GAPDH, HEPES, and MgSO4. A predetermined concentration of the compound of Formula I was added to the reaction solution (30 mM Hepes, 3 mM ATP, 0.22 mM NADH, 10 mM MgSO4, 10 mM 3-PGA, 3-4 U/ml GAPDH, pH 7.5). Absorbance was measured at 25 °C with a spectroscope (340 nm). Relative activity of pgk1 was calculated based on the changes of absorbance value within 1-10 minutes. The activity has a positive correlation with the changes of absorbance value. The absorbance of the same compound at 340 nm was subtracted in the test group.

cerebral thrombosis = assay: Mouse model of cerebral thrombosis, infarct volume; type: in vivo; settings: 0.4 mg/kg i.p.; 6 mice per condition; t-test P<0.05
Experimental: In a mouse model of cerebral thrombosis, the mouse brains were stained after death from thrombosis. […] The statistical analysis was performed based on % infarct volume = white area/total area, 6 mice were tested for each condition. t-test, P<0.05.

[2] = Effect on serum glucose in mice; type: in vivo; settings: Mus musculus, ip, read-out: reduction of the serum glucose level
Experimental: Mice were injected terazosin (0.4 mg/kg i.p.) once. The serum glucose level of the mice was measured 18 hours later. […] By the same method, exemplary compounds Co.1, Co.3, Co.7, Co.9, Co.13, Co.16, Co.19, Co.24, Co.27 and Co.32 as described in the present invention were all shown to be effective to reduce the serum glucose level by 20% to 50%.

[3] = system: E. coli induced sepsis model; assay: E. coli induced sepsis model in mice; type: in vivo, BALB/C mice; settings: 0.4 mg/kg, 1.5 hours following injection of E. coli
Experimental: Terazosin was tested in a model of septicemia caused by E. coli injected. […] To determine the potential antibacterial effect, the growth of E. coli was examined in the presence of terazosin.

[4] = system: active form of caspase-3 in Raw 264.7 cells; assay: Western blot of the active form of caspase-3 in cells treated with LPS and IFNγ; type: cell-based
Experimental: CLP was done one week after the injection.
For Western blot, an anti-active Caspase 3 antibody (#9664, Cell Signaling) was used. The anti-actin antibody was purchased from Wuhan Boster company, China.
(§1) RAW 264.7 cells were cultured in the DMEM medium (Gibco) supplemented with 5% FBS, streptomycin (0.1 mg/mL) and penicillin (0.06 mg/mL). To induce apoptosis, 2 µg/mL lipopolysaccharide (LPS; Escherichia coli O111:B4, Sigma-Aldrich) and IFN-γ (50 U/mL, Peprotech) were added, and a predetermined concentration of the testing compound was added at the same time. Cell death was assessed by Western blot with an anti-active Caspase 3 antibody (#9661, Cell Signaling). β-Actin (Boster) was used as internal control for protein loading. The ratio of Caspase 3/β-Actinwas was used to assess apoptosis.

[5] = Blood pressure of injected mice; type: in vivo; settings: 0.08 mg/kg
Experimental: (§2) Because E. coli and LPS models can only simulate Gram-negative bacteria infections, terazosin was further tested in a cecal ligation and puncture (CLP) model, which is believed to be the classic standard model of experimental septicemia (Parker and Watkins, 2001; Wichterman et al., 1980). First, 0.4 mg/kg of terazosin (same concentration as used in the LPS model) was tested. […] This may be due to severe cardiac dysfunction and hypotension induced by CLP. Thus, the blood pressure lowering function of the drug may have masked its anti-apoptotic effect. […] In addition, the combination of terazosin and antibiotics was tested. Terazosin was combined with amoxicillin and clavulanate potassium (Co-Am, amoxicillin and clavulanate potassium in a weight ratio of 4: 1, by way of a specific example elsewhere or instance mentioned in the present invention, also means a 4 : 1 ratio. Skilled in the art can understand, when a combination of amoxicillin and clavulanate potassium is referred to, the weight ratio of amoxicillin and clavulanate potassium can be from 1:1 to 10:1, especially 1:1-7:1, for example, about 1:1, about 4:1, about 7:1).

[6] = system: RAW264.7 macrophage cells; assay: LPS and IFNγ induced apoptosis, Annexin V staining; type: cell-based; settings: Mus musculus, LPS (2 µg/ml) and IFNγ (50 U/ml), read-out: reduction of apoptosis
Experimental: Cells were stained with Annexin V to examine apoptosis (Fig. 4). […] Terazosin (4 µg/ml) can reduced 50% of apoptosis (Fig. 4).
The RAW 264.7 cells were cultured in the DMEM medium (Gibco) supplemented with 10% FBS (Gibco), streptomycin (0.1 g/L) and penicillin (0.06 g/L) (Amresco). To induce apoptosis, RAW 264.7 cells at 90% confluence were incubated in DMEM (10% FBS) containing 2 µg/mL lipopolysaccharide (LPS; Escherichia coli O111:B4, Sigma) for 24 hours.
as §1

CLP model of sepsis = type: in vivo, BALB/C mice
Experimental: as §2
For the CLP model of sepsis, mice were anesthetized with chloral hydrate (300 mg/kg, i.p.). Then, a 1.5-2.0 cm long abdominal midline incision was made and the cecum was exposed. […]

HS>rpr Drosophila = assay: Compound screen in the apoptotic HS>rpr Drosophila model; type: in vivo; settings: heat shock at 37 °C; 25 compounds screened
Experimental: HS-Gal4 (a promoter that can be expressed in whole body and activated by heat), can promote expression of any genes having repeated UAS (upstream activating sequence) at the 5' region. The HS-Gal4 and UAS-Reaper Drosophila were crossed at 18 °C to produce hybrids referred to as HS> rpr, and the female offspring underwent normal development. However, with heat shock for 2-3 hours at 37 °C, about 50-70% of the offspring died after 14-24 h (Fig. 1). 25 compounds were selected (Fig. 2) to determine their impact on the lethal rate of HS> rpr.
UAS-rpr and HS-Gal4 flies were obtained from Bloomington Stock Center in the US. The F1 progenies (HS>rpr) from the cross of these two lines were raised at 18 °C for the compound screen. Compounds were dissolved in 5% sucrose at the concentrations used in the culture media for Cmap. The compound solution (150 µL) was added to a vial containing three layers of filter papers. Twenty adult HS>rpr flies aged 1-3 days were then placed into each vial for 24 hours. The flies were heat shocked at 37 °C for 2 hrs. The survival rate was calculated 12 hrs after the heat shock.

[7] = read-out: Activity* (the times of pgk1 activity induced by 0.02µg/ml of the tested compound)
[8] = 0.4 mg/kg i.p. once, measured 18 hours later, t-test P<0.01 for terazosin

Experimental for LPS-induced sepsis model: Male BALB/C mice (20±3g) from Vital River (Beijing, China) were housed in the Animal Center of Peking University. […] For the LPS model of sepsis, each mouse was injected with LPS (13.5 mg/kg, i.p.) once. […] Terazosin (0.4 mg/kg or 0.04 mg/kg) or saline was then injected (i.p.) 1.5 hours after LPS infusion. Lethality was recorded every 12 hours for 7 days.
24 hrs after LPS injection, one thymus from each mouse was collected. Then, the genomic DNA of thymus was extracted with a genomic DNA purification kit (Biofuture, Beijing, China). DNA fragmentation was assessed on a DNA agarose gel.

| Structure (SMILES) | survival against sepsis [1] | fold induction at 0.02 µg/mL (pgk1; [7]) | infarct volume (% infarct volume = white area/total area) (cerebral thrombosis) | inhibition in vivo at 0.4 mg/kg [2, 8] | further results |
| --- | --- | --- | --- | --- | --- |
| CC1(C)S[C@@H]2[C@H](NC(=O)[C@H](N)c3ccccc3)C(=O)N2[C@H]1C(=O)O [ampicillin] |  |  |  |  | growth of E. coli (inhibition zones) (E. Coli O111:B4): shown to inhibit E. coli growth |
| COc1c(OC)c(OC)c2c(N)nc(N3CCN(C(=O)C4CCCO4)CC3)nc2c1NC(C)=O (centres unmarked) [Co.29] | significantly increased survival against sepsis | 2.6 | effective to reduce the infarct volume |  |  |
| COc1cc2nc(N3CCN(C(=O)C4CCCO4)CC3)nc(NC(=O)C(F)(F)F)c2cc1OC (centres unmarked) [Co.13] | significantly increased survival against sepsis | 1.8 | effective to reduce the infarct volume | 20 to 50% |  |
| COc1cc2nc(N3CCN(C(=O)C4CCCO4)CC3)nc(NO)c2cc1OC (centres unmarked) [Co.4] | significantly increased survival against sepsis | 3.4 | effective to reduce the infarct volume |  |  |
| COc1cc2nc(N3CCN(C(=O)C4CCCO4)CC3)nc(N)c2cc1OC (centres unmarked) [Co.33, (4-(4-amino-6,7-dimethoxyquinazolin-2-yl)piperazin-1-yl)(tetrahydrofuran-2-yl)methanone] | significantly increased survival against sepsis |  |  |  | protection from E. coli-induced death [3]: can protect mice from E. coli-induced death; growth of E. coli (inhibition zones) (E. Coli O111:B4): cannot inhibit the growth of E. coli; active form of caspase-3 [4]: decreased; blood pressure of the injected mice [5]: completely normal; inhibition at 4 µg/mL [6]: 50%; survival of mice in the CLP model (CLP model of sepsis; 0.08 mg/kg, injected at 1.5 hours and 24 hours after surgery): significantly promoted the survival of mice; death of mice in the CLP model versus control (CLP model of sepsis; mouse, in vivo): died faster than the control group; survival rate of HS>rpr Drosophila (HS>rpr Drosophila): significantly improve the survival rate; inhibition in vivo at 0.4 mg/kg ([2]; 18 h): 30%; effect in later phases of septicemia (survival) (LPS-induced sepsis model; injected at 12 hours after LPS treatment (0.04 mg/kg per Fig. 6)): satisfactory results; DNA ladders in genomic DNA of the thymus (LPS-induced sepsis model; mice treated with LPS and terazosin vs LPS, 24 hrs after LPS injection): significantly reduced |
| COc1cc2nc(N3CCN(C(=O)C4CCCO4)CC3)nc(NC(C)=O)c2cc1OC (centres unmarked) [Co.1] | significantly increased survival against sepsis | 2.9 | effective to reduce the infarct volume | 20 to 50% | fold induction at 0.02 µg/mL (pgk1; 0.02 µg/ml, read-out: activation of pgk1 represented by fold changes): 2.9 |
| COc1c(OC)c(OC)c2c(N)nc(N3CCN(C(=O)C4CCCO4)CC3)nc2c1F (centres unmarked) [Co.28] | significantly increased survival against sepsis | 1.2 |  |  |  |
| COc1cc2c(N)nc(N3CCN(C(=O)C4CCCO4)CC3)nc2cc1F (centres unmarked) [Co.18] | significantly increased survival against sepsis | 1.3 |  |  |  |
| COc1cc2nc(N3CCN(C(=O)C4CCCO4)CC3)nc(NC3CCCCC3)c2cc1OC (centres unmarked) [Co.9] | significantly increased survival against sepsis | 1.4 |  | 20 to 50% |  |
